Experimental data published in PubChem BioAssay (NCI).
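Five compound concentrations were applied to cells in 96-well plates for 48 hours; endpoints were derived by simple linear interpolation of the resulting dose-response curve. GI50 marks 50% less growth. TGI is the concentration that stops growth completely.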

Key:
Assay in all cases: growth of human tumour cells (NCI), 48 h
DMS 114 small cell lung = tested on: DMS 114 small cell lung
DMS 273 small cell lung = tested on: DMS 273 small cell lung
KM20L2 colon = tested on: KM20L2 colon
SNB-78 CNS = tested on: SNB-78 CNS
NCI/ADR-RES ovarian = tested on: NCI/ADR-RES ovarian
HS 578T breast = tested on: HS 578T breast
MDA-MB-435 = tested on: MDA-MB-435
BT-549 breast = tested on: BT-549 breast
PC-3 prostate = tested on: PC-3 prostate
MDA-MB-231 breast = tested on: MDA-MB-231 breast

Structure (SMILES)	TGI (DMS 114 small cell lung)	TGI (DMS 273 small cell lung)	TGI (KM20L2 colon)	TGI (SNB-78 CNS)	other results
COc1ccc2nc(-c3cccs3)cc(C(O)CN3CCSCC3)c2c1 (stereo not given)	38.7 µM	40 µM	45.5 µM	–	–
C1C[OH+]CC[OH+]CCNCC[OH+]CC[OH+]CCN1.N.[Cl-].[Pt+4]	–	15.7 µM	> 100 µM	63.3 µM	GI50 (SNB-78 CNS): 4.15 µM; GI50 (DMS 273 small cell lung): 2.87 µM; GI50 (KM20L2 colon): 30.3 µM
NNC(=O)/C(=C/c1ccc(Cl)cc1Cl)NC(=O)c1ccccc1	> 100 µM	> 100 µM	–	> 100 µM	–
COC(C(=O)[O][Ge]([CH3])([CH3])[CH3])c1ccccc1 (stereo not given)	> 100 µM	–	> 100 µM	> 100 µM	GI50 (SNB-78 CNS): > 100 µM; GI50 (DMS 114 small cell lung): > 100 µM; GI50 (KM20L2 colon): > 100 µM
C/C(=N\NS(=O)(=O)c1ccccc1)c1ccc(Cl)c(Cl)c1	> 100 µM	> 100 µM	> 100 µM	> 100 µM	–
O=C(N/C(=C\c1ccc2c(c1)OCO2)c1nc2ccccc2[nH]1)c1ccccc1	6.08 µM	> 100 µM	> 89.7 µM	> 95.9 µM	–
COC(=O)C(=O)C1(CCC(C)=O)c2ccccc2-c2c(C)ccc(C)c21 (stereo not given)	> 100 µM	> 100 µM	> 100 µM	78.5 µM	–
CCc1ccccc1NC(=O)C(=O)CC(=O)c1sc(Nc2ccccc2)nc1C	> 100 µM	> 100 µM	> 100 µM	> 100 µM	–
NC1C[C@H](n2cc(/C=C/Br)c(=O)[nH]c2=O)C[C@@H]1CO (stereo not given in full)	> 100 µM	> 100 µM	> 100 µM	–	–
CCOC(=O)COc1ccccc1/C=C1\CCC(CN(C)C)C1=O (stereo not given)	24.2 µM	8.17 µM	30.2 µM	62.6 µM	TGI (NCI/ADR-RES ovarian): > 44 µM
Nc1ccn(CCNCCn2cnc3nc(N)[nH]c(=O)c32)c(=O)n1	> 100 µM	–	> 100 µM	> 100 µM	–
Cc1ccc(C(=O)c2nnc(C(=O)c3ccc(C)cc3)nn2)cc1	–	> 100 µM	> 100 µM	> 100 µM	–
O=c1/c(=C/c2ccccc2F)sc2nc3ccccc3n12	> 100 µM	> 100 µM	> 100 µM	> 100 µM	–
Cc1ccc(NC(=O)C(=O)C(C#N)c2ccccc2C)cc1C (stereo not given)	> 59.2 µM	> 100 µM	> 100 µM	> 100 µM	–
CC1=C(Oc2ccccc2)C(CCC(=O)O)c2c(O)cc(Cl)c(O)c21 (stereo not given)	> 100 µM	> 100 µM	> 100 µM	> 100 µM	–
CCOc1ccc(NC(=O)C(=O)CC(=O)C2=C(C)Nc3ccccc3S2)cc1	> 50 µM	–	> 50 µM	–	–
Cc1c(C(=O)C/C(=N\O)C(=O)Nc2cc(Cl)c(Cl)cc2Cl)[n+](=O)c2ccccc2n1[O-]	19.9 µM	38 µM	41.4 µM	> 100 µM	–
Cc1[nH]ccc2c1[nH]c1cc(=O)ccc12	> 100 µM	> 100 µM	> 100 µM	> 100 µM	–
CN(C)C(=O)OC(Cn1cncn1)c1ccc(Cl)cc1Cl (stereo not given)	> 100 µM	> 100 µM	> 100 µM	> 100 µM	–
O=C(CN1CCOCC1)Nc1nc(-c2ccc(Cl)cc2)cs1	65.8 µM	41.8 µM	–	> 100 µM	–

Structure (SMILES)	TGI (DMS 114 small cell lung)	TGI (DMS 273 small cell lung)	TGI (KM20L2 colon)	TGI (SNB-78 CNS)	other results
C#CCOCn1cnc2c(Cl)ncnc21	> 100 µM	> 100 µM	–	> 100 µM	–
C=CCC[CH2][Sn]([c]1ccccc1)([c]1ccccc1)[c]1ccccc1	–	3.03 µM	3.36 µM	4.83 µM	GI50 (SNB-78 CNS): 1.73 µM; GI50 (DMS 273 small cell lung): 1.58 µM; GI50 (KM20L2 colon): 1.83 µM
CC1=Nc2ccccc2S/C1=C(/C)NNC(=O)C(N)=O	> 100 µM	> 100 µM	> 100 µM	> 100 µM	–
CC1=C(C)C(=O)c2c(cc3ccccn23)C1=O	26.9 µM	32.2 µM	–	77.5 µM	–
CCCC(=O)OC1C(C(O)CO)OC2OC(C)(C)OC21 (stereo not given)	> 100 µM	> 100 µM	> 100 µM	> 100 µM	TGI (HS 578T breast): > 100 µM; TGI (NCI/ADR-RES ovarian): > 100 µM; TGI (MDA-MB-435): > 100 µM; TGI (BT-549 breast): > 100 µM; TGI (PC-3 prostate): > 100 µM; TGI (MDA-MB-231 breast): > 100 µM
O=[N+]([O-])C1C2C=CC(C2)[C@H]1c1ccco1 (stereo not given in full)	> 100 µM	> 100 µM	> 100 µM	> 100 µM	–
O=C1[C@H]2ON(c3ccccc3)C(c3ccccc3Cl)[C@H]2C(=O)N1c1ccc(Cc2ccc(N3C(=O)[C@@H]4ON(c5ccccc5)C(c5ccccc5Cl)[C@@H]4C3=O)cc2)cc1 (stereo not given in full)	> 100 µM	> 100 µM	> 100 µM	> 100 µM	–
CCCCCCCCCCCC(=O)OCC1OC(n2cc(F)c(=O)[nH]c2=O)C(NC(=O)OCc2ccccc2)C(OC(=O)CCCCCCCCCCC)C1O (stereo not given)	> 100 µM	> 100 µM	> 100 µM	> 100 µM	–
CC1C=C(OC(=O)c2ccccc2)C(=O)C(n2cc(F)c(=O)[nH]c2=O)O1 (stereo not given)	> 100 µM	> 100 µM	> 100 µM	> 100 µM	–
Cc1cc(N(CCC#N)CCC#N)ccc1N=Nc1cccc(C(=O)O)c1	> 100 µM	> 100 µM	–	> 100 µM	–
CSc1ccc(C2OC(=O)c3ccccc32)c2ccccc12 (stereo not given)	> 100 µM	–	> 100 µM	> 100 µM	–
Oc1cccc2ccc(N/N=C/c3cc(CN4CCCCC4)c(O)c4ncccc34)nc12	–	–	–	–	GI50 (HS 578T breast): 0.147 µM; TGI (HS 578T breast): 29.4 µM; GI50 (NCI/ADR-RES ovarian): 0.0463 µM; TGI (NCI/ADR-RES ovarian): 1.06 µM; GI50 (MDA-MB-435): 0.0444 µM; TGI (MDA-MB-435): 1.73 µM; GI50 (BT-549 breast): 0.0574 µM; TGI (BT-549 breast): 6.02 µM; GI50 (PC-3 prostate): 0.0417 µM; TGI (PC-3 prostate): 1.86 µM; GI50 (MDA-MB-231 breast): 0.0991 µM; TGI (MDA-MB-231 breast): 2.03 µM
CN1CCC(n2cnc(-c3ccc(F)cc3)c2-c2ccnc(NCCO)n2)CC1	–	–	–	–	GI50 (HS 578T breast): > 25 µM; TGI (HS 578T breast): > 25 µM; GI50 (NCI/ADR-RES ovarian): > 25 µM; TGI (NCI/ADR-RES ovarian): > 25 µM; GI50 (MDA-MB-435): 11.5 µM; TGI (MDA-MB-435): > 25 µM; GI50 (BT-549 breast): > 25 µM; TGI (BT-549 breast): > 25 µM; GI50 (PC-3 prostate): > 25 µM; TGI (PC-3 prostate): > 25 µM; GI50 (MDA-MB-231 breast): > 25 µM; TGI (MDA-MB-231 breast): > 25 µM
O=C(NCCO)Nc1ccc(-c2nc(N3CCOCC3)c3cccn3n2)cc1	–	–	–	–	GI50 (HS 578T breast): 0.0889 µM; TGI (HS 578T breast): 0.836 µM; GI50 (NCI/ADR-RES ovarian): 2.25 µM; TGI (NCI/ADR-RES ovarian): > 33.7 µM; GI50 (MDA-MB-435): 0.188 µM; TGI (MDA-MB-435): > 28.1 µM; GI50 (BT-549 breast): 0.0729 µM; TGI (BT-549 breast): 3.6 µM; GI50 (PC-3 prostate): 0.103 µM; TGI (PC-3 prostate): > 100 µM; GI50 (MDA-MB-231 breast): 0.172 µM; TGI (MDA-MB-231 breast): 14.6 µM
CCN(CC)c1ccc(C(=O)c2ccccc2C(=O)O)c(O)c1	> 100 µM	> 100 µM	–	> 100 µM	–
CCCNC1=C(C(=O)OCC)C(=O)CO1	> 100 µM	> 100 µM	> 100 µM	> 100 µM	–
Cn1cc(-c2ccc3occ(-c4cccc(-c5ccncc5)c4)c3n2)cn1	–	–	–	–	GI50 (HS 578T breast): 0.377 µM; TGI (HS 578T breast): 6.18 µM; GI50 (NCI/ADR-RES ovarian): 0.368 µM; TGI (NCI/ADR-RES ovarian): > 100 µM; GI50 (MDA-MB-435): 0.176 µM; TGI (MDA-MB-435): 0.525 µM; GI50 (BT-549 breast): 1.22 µM; TGI (BT-549 breast): 17.1 µM; GI50 (PC-3 prostate): 0.961 µM; TGI (PC-3 prostate): > 100 µM; GI50 (MDA-MB-231 breast): 1.62 µM; TGI (MDA-MB-231 breast): > 100 µM
COc1ccc(OC)c(NC(=O)C2=C(C)NC(C)=C(C(=O)Nc3cc(OC)ccc3OC)C2c2ccccc2)c1	> 100 µM	> 100 µM	> 100 µM	> 100 µM	–
COc1cc(C(=O)C/C(CCCC(=O)Nc2ccccc2[N+](=O)[O-])=N/NC(=O)c2cc3ccccc3cc2O)ccc1O	–	43.6 µM	> 91.1 µM	> 100 µM	–
Cc1ccc(N=Cc2ccc3c(c2)OCO3)cc1C	–	> 100 µM	> 100 µM	> 100 µM	–
